According to patent US7638306B2, “Process of increasing cellular production of biologically active compounds” (Fermalogic, Inc., priority 2003, dated 2009):
Counter-ions that a name gives are not always drawn.

Assays:
wild type A. erythreum = experiment: growth inhibition of wild type A. erythreum by kanamycin; assay type: cell-based, Aeromicrobium erythreum
[1] = system: A. erythreum mutants containing the aph1 gene; settings: aphI (aph1) gene from Tn903 expressed in A. erythreum
Excerpt: E. coli library of A. erythreum genomic DNA. The plasmid library was constructed in the A. erythreum integration vector pFL2082, a pUC19-derived vector containing the aphI gene from Tn903. […] Several different vector preparations were dephosphorylated with different concentrations of CIAP or SAP in order to obtain the highest ratio of white to blue colonies after ligation. […] To generate a library that represented in excess of 5-fold coverage of the chromosome (estimated A. erythreum genome size somewhere between 4-8 Mb, representing about 4,000-8,000 coding sequences), 100,000 white colonies were harvested into 25 pools. This large number of colonies was chosen based on the assumption that some genes will be disproportionately represented over others after selection in E. coli. The colonies were split among 25 pools (ca. 4,000 colonies/pool) to increase randomness. To determine the insert size of random plasmid isolates a total of 65 white colonies were analyzed by restriction analysis of their plasmid DNA. […] This library was designated A. erythreum genomic library or library 1.
To generate a gene replacement library we developed a rapid, simple visual screen that took advantage of the Kn^r phenotype of single crossover mutants and the Kn^s phenotype of gene replacement mutants. […]

Structure (SMILES) | kanamycin concentration to which A. erythreum is sensitive (growth inhibited) (wild type A. erythreum) | kanamycin concentration up to which resistance is conferred with good growth [1]
NC[C@H]1O[C@H](O[C@H]2[C@H](O)[C@@H](O[C@H]3O[C@H](CO)[C@@H](O)[C@H](N)[C@H]3O)[C@H](N)C[C@@H]2N)[C@H](O)[C@@H](O)[C@@H]1O [Kanamycin sulfate] | ≥ 5 µg/mL | 
NC[C@H]1O[C@H](O[C@H]2[C@H](O)[C@@H](O[C@H]3O[C@H](CO)[C@@H](O)[C@H](N)[C@H]3O)[C@H](N)C[C@@H]2N)[C@H](O)[C@@H](O)[C@@H]1O [kanamycin] | ≥ 2 µg/mL | 10 to 15 µg/mL
